Source: paper PMC6348444, “New Water-Soluble Copper(II) Complexes with Morpholine–Thiosemicarbazone Hybrids: Insights into the Anticancer and Antibacterial Mode of Action” (Journal of Medicinal Chemistry, 2018)

Tested on: A2780 cells
Assay: Annexin V/PI apoptosis assay
Type: cell-based, human
Settings: 24 h
Source text: To elucidate if observed cytotoxicity of new compounds described in this study was a result of apoptosis induction, we conducted Annexin V/PI apoptosis assay. In brief, fluorochrome-labeled Annexin V reagent is used for detection of membrane phosphatidylserine (PS), which translocates to the cellular surface from the inner side of plasma membrane in the event of early apoptosis. Simultaneously, PI is used for detection of later stages of apoptosis or necrosis, which are characterized by loss of membrane integrity and accumulation of PI inside the cells. […] Results are illustrated in Figure 9. Upon incubation of A2780 cells with increasing concentrations of HL^2 and 2, the dose-dependent increase of apoptotic cells was observed.
A2780 cells were seeded into Cellstar 12-well plates (Greiner Bio-One) at a density of 20 × 10^4 cells/well (1 mL per well). The cells were allowed to resume exponential growth for 24 h and subsequently they were exposed to HL^2 and 2 at different concentrations for 24 h. After the supernatant solution was collected in 1.5 mL microtubes, the cells were washed with 100 μL of trypsin, which was combined with the supernatant. Subsequently, cells were trypsinized with 200 μL of trypsin for 5 min at 37 °C, 5% CO2, washed with 200 μL of PBS, and combined with the supernatant. The cells were centrifuged at 2.5 × 10^3 rpm for 5 min and the pellets were washed once with PBS and resuspended in 500 μL of Annexin V binding buffer and stained with Annexin V-FITC and PI reagents. The fluorescence was immediately analyzed by flow cytometry. The resulting dot blots were acquired from 10 000 events and quantified using Flowjo software (Flowjo LLC, Ashland, OR, USA).

Q: Which apoptotic cells (A2780, 2IC50 concentration) does the source give for `CN(C)C(=NN=Cc1ccc(CN2CCOCC2)cn1)[S][Cu][Cl]` [complex 2, [Cu(L^2)Cl]] here?
A: 22.5 ± 5.3%

Q: And the apoptotic cells (A2780, 6IC50 concentration)?
A: 24.4 ± 7.8%
